How the values were obtained:
Ps0 patients [1] = test: Ps0 study in anti-IL-17 treatment groups: serum IL-19 and PASI; format: in vivo, human; conditions: for number of patients achieving at least PASI 75: title: week 16, head: Week 2
Excerpt: (§1) According to an exemplified embodiment, a sandwich ELISA assay for the sensitive detection of IL-19 is provided herein. According to an exemplified embodiment, a first IL-19 antibody (selected from Table 1, 2 or 3) is utilized as an IL-19 capture antibody and a second IL-19 antibody (selected from Table 1, 2 or 3) is utilized as an IL-19 reporter antibody. […] According to some embodiments, one milligram of the first IL-19 antibody (the capture antibody) is biotinylated using Pierce biotinylation kit (Cat #) and one milligram of the second IL-19 antibody (the reporter antibody) is labeled with ruthenium using MesoScale Discovery (MSD) kit for electrochemiluminescent (ECL) detection. According to such embodiment, labeled antibodies are evaluated using MALDI-TOF to ensure suitable labeling, and then diluted in 50% glycerol and stored at −20° C. prior to use.
(§2) Streptavidin-coated 96-well MSD plates are washed three times with TBST (Tris buffered saline containing 10 mmol/L Tris pH 7.40, 150 mmol/L NaCl with 1 mL Tween 20/L) and then blocked with TBS-T plus 1% BSA for 1 hour at room temperature. Plates are again washed and wells are then incubated with biotinylated IL-19 capture antibody (1 mg/L) for 1 hour. Thereafter, plates are again washed prior to patient sample testing.
(§3) During patient sample testing, a standard curve is generated using 50 μL of recombinant human IL-19 control standard (serially diluted IL-19 recombinant protein ranging from 100-0.0001 ng/L, and including a zero blank, in assay buffer of 50 mmol/L HEPES, pH 7.40, 150 mmol/L NaCl, 10 mL/L Triton X-100, 5 mmol/L EDTA, and 5 mmol/L EGTA). […] Patient samples (which, according to the present invention, may include blood, serum or plasma) are diluted 1:4 in assay buffer and added to respective wells. The plate is incubated overnight at 4° C. Following incubation, wells are aspirated and washed 3 times with TBST. Thereafter, 50 μL of ruthenium-labeled IL-19 detection antibody (0.5 mg/L) is added to the wells for a 1-hour incubation at room temperature. Following incubation, wells are aspirated and washed 3 times with TBST. Thereafter, 150 μl of 2×MSD read buffer is added. Ruthenium electrochemiluminescence in the wells is detected using a MSD Sector 6000 plate reader. Data is analyzed and IL-19 MSD immunoassay calibration curve fitting is performed using MesoScale Discovery software. SAS® software version 9.4 (PROC MIXED) is used for assessing treatment effects on IL-19 levels using a mixed effects model with an unstructured covariance matrix and log10 transformed IL-19 concentrations (SAS. Version 9.4 for UNIX; SAS Institute Inc.: Cary, N.C., 2016). Statistical analysis is generated with the ggplot and pROC packages using R version 3.3.3 statistical computing environment (www.R-project.org, Vienna, Austria, 2017).
The study includes five treatment group doses of: 10 mg (n=24), 25 mg (n=23), 75 mg (n=26), or 150 mg (n=28) of ixekizumab or placebo (n=24). Administration of all treatment doses is subcutaneous, and doses are administered starting at week 0 and every 2 weeks thereafter up to week 16 (inclusive).

PsA patients = test: PsA study in anti-IL-17 treatment groups: serum IL-19 and PASI; format: in vivo, human; conditions: for IL-19 (geometric mean) serum levels: subcutaneous
Excerpt: as §1, §2, §3
A study of IL-19 levels, in serum of 309 PsA patients treated with a therapeutic antibody targeting IL-17, ixekizumab, is performed. The study includes three treatment groups: (i.) anti-IL-17 treatment group, administered ixekizumab 160 mg at baseline followed by an 80 mg dose administered every two weeks thereafter for 12 weeks (n=103); (ii.) anti-IL-17 treatment group, administered ixekizumab 160 mg at baseline followed by an 80 mg dose administered every four weeks thereafter for 12 weeks (n=107); or (iii.) placebo (n=105). Administration of all treatment doses is subcutaneous. […] Serum IL-19 concentration levels are presented in Table 21; week 4 and 12 PASI prognostic values showing correlations of IL-19 serum levels and PASI in patients (21 ng/L, indicates the upper limit of the normal range of IL-19 in healthy subjects) are presented in Tables 22 and 23, respectively.

Ps0 patients [2] = conditions: cited from earlier work
[3] = 10 mg subcutaneous every 2 weeks, week 16
[4] = 25 mg subcutaneous every 2 weeks, week 16
[5] = 75 mg subcutaneous every 2 weeks, week 16
[6] = 150 mg subcutaneous every 2 weeks, week 16
[7] = Q2W, IL-19 at week 4 and PASI at week 12
[8] = Q2W, IL-19 at week 12 and PASI at week 12
[9] = Q4W, IL-19 at week 4 and PASI at week 12
[10] = Q4W, IL-19 at week 12 and PASI at week 12

ixekizumab
IL-19 serum levels (geometric mean) (Ps0 patients [1]; 10 mg subcutaneous every 2 weeks, Week 0 (baseline)): 111.6 pg/mL | IL-19 serum levels (geometric mean) (Ps0 patients [1]; 10 mg subcutaneous every 2 weeks, Week 2): 45.3 pg/mL | number of patients achieving at least PASI 75 (Ps0 patients [1]; 10 mg subcutaneous every 2 weeks, n = 19): 5 | % of patients with serum IL-19 concentration ≤ 21 pg/mL (Ps0 patients [1]; [3]): 42.1% (8/19) | % patients with serum IL-19 concentration ≤ 21 pg/mL achieving at least PASI 75 (Ps0 patients [1]; [3]): 62.5% (5/8) | % patients with serum IL-19 concentration ≤ 21 pg/mL not achieving at least PASI 75 (Ps0 patients [1]; [3]): 37.5% (3/8)^ | IL-19 serum levels (geometric mean) (Ps0 patients [1]; [3]): 57.3 pg/mL | IL-19 serum levels (geometric mean) (Ps0 patients [1]; 25 mg subcutaneous every 2 weeks, Week 0 (baseline)): 89.0 pg/mL | IL-19 serum levels (geometric mean) (Ps0 patients [1]; 25 mg subcutaneous every 2 weeks, Week 2): 22.3 pg/mL | number of patients achieving at least PASI 75 (Ps0 patients [1]; 25 mg subcutaneous every 2 weeks, n = 20): 16 | % of patients with serum IL-19 concentration ≤ 21 pg/mL (Ps0 patients [1]; [4]): 70% (14/20) | % patients with serum IL-19 concentration ≤ 21 pg/mL achieving at least PASI 75 (Ps0 patients [1]; [4]): 92.9% (13/14) | % patients with serum IL-19 concentration ≤ 21 pg/mL not achieving at least PASI 75 (Ps0 patients [1]; [4]): 7.1% (1/14) | IL-19 serum levels (geometric mean) (Ps0 patients [1]; [4]): 13.6 pg/mL | IL-19 serum levels (geometric mean) (Ps0 patients [1]; 75 mg subcutaneous every 2 weeks, Week 0 (baseline)): 86.7 pg/mL | IL-19 serum levels (geometric mean) (Ps0 patients [1]; 75 mg subcutaneous every 2 weeks, Week 2): 11.6 pg/mL | number of patients achieving at least PASI 75 (Ps0 patients [1]; 75 mg subcutaneous every 2 weeks, n = 24): 21 | % of patients with serum IL-19 concentration ≤ 21 pg/mL (Ps0 patients [1]; [5]): 91.7% (22/24)^ | % patients with serum IL-19 concentration ≤ 21 pg/mL achieving at least PASI 75 (Ps0 patients [1]; [5]): 86.4% (19/22) | % patients with serum IL-19 concentration ≤ 21 pg/mL not achieving at least PASI 75 (Ps0 patients [1]; [5]): 13.6% (3/22) | IL-19 serum levels (geometric mean) (Ps0 patients [1]; [5]): 9.4 pg/mL | IL-19 serum levels (geometric mean) (Ps0 patients [1]; 150 mg subcutaneous every 2 weeks, Week 0 (baseline)): 87.1 pg/mL | IL-19 serum levels (geometric mean) (Ps0 patients [1]; 150 mg subcutaneous every 2 weeks, Week 2): 13.9 pg/mL | number of patients achieving at least PASI 75 (Ps0 patients [1]; 150 mg subcutaneous every 2 weeks, n = 24): 22 | % of patients with serum IL-19 concentration ≤ 21 pg/mL (Ps0 patients [1]; [6]): 92% (23/25) | % patients with serum IL-19 concentration ≤ 21 pg/mL achieving at least PASI 75 (Ps0 patients [1]; [6]): 95% (19/20) | % patients with serum IL-19 concentration ≤ 21 pg/mL not achieving at least PASI 75 (Ps0 patients [1]; [6]): 5% (1/20) | IL-19 serum levels (geometric mean) (Ps0 patients [1]; [6]): 11.9 pg/mL | IL-19 (geometric mean) serum levels (PsA patients; Q2W: 160 mg at baseline, then 80 mg every two weeks, Week 0 (baseline)): 23.0 pg/mL | IL-19 (geometric mean) serum levels (PsA patients; Q2W: 160 mg at baseline, then 80 mg every two weeks, Week 4): 6.0 pg/mL | IL-19 (geometric mean) serum levels (PsA patients; Q2W: 160 mg at baseline, then 80 mg every two weeks, Week 12): 6.1 pg/mL | % of patients with serum IL-19 concentration ≤ 21 pg/mL (PsA patients; Q2W, IL-19 at week 4): 97.5% (79/81) | % patients with serum IL-19 concentration ≤ 21 pg/mL achieving at least PASI 75 (PsA patients; [7]): 72.2% (57/79) | % patients with serum IL-19 concentration ≤ 21 pg/mL not achieving at least PASI 75 (PsA patients; [7]): 27.8% (22/79) | % of patients with serum IL-19 concentration ≤ 21 pg/mL (PsA patients; Q2W, IL-19 at week 12): 96.7% (87/90) | % patients with serum IL-19 concentration ≤ 21 pg/mL achieving at least PASI 75 (PsA patients; [8]): 73.1% (57/78) | % patients with serum IL-19 concentration ≤ 21 pg/mL not achieving at least PASI 75 (PsA patients; [8]): 26.9% (21/78) | IL-19 (geometric mean) serum levels (PsA patients; Q4W: 160 mg at baseline, then 80 mg every four weeks, Week 0 (baseline)): 31.3 pg/mL | IL-19 (geometric mean) serum levels (PsA patients; Q4W: 160 mg at baseline, then 80 mg every four weeks, Week 4): 7.6 pg/mL | IL-19 (geometric mean) serum levels (PsA patients; Q4W: 160 mg at baseline, then 80 mg every four weeks, Week 12): 7.3 pg/mL | % of patients with serum IL-19 concentration ≤ 21 pg/mL (PsA patients; Q4W, IL-19 at week 4): 90.8% (79/87) | % patients with serum IL-19 concentration ≤ 21 pg/mL achieving at least PASI 75 (PsA patients; [9]): 73.4% (58/79) | % patients with serum IL-19 concentration ≤ 21 pg/mL not achieving at least PASI 75 (PsA patients; [9]): 26.6% (21/79) | % of patients with serum IL-19 concentration ≤ 21 pg/mL (PsA patients; Q4W, IL-19 at week 12): 93.5% (87/93) | % patients with serum IL-19 concentration ≤ 21 pg/mL achieving at least PASI 75 (PsA patients; [10]): 74.1% (60/81) | % patients with serum IL-19 concentration ≤ 21 pg/mL not achieving at least PASI 75 (PsA patients; [10]): 25.9% (21/81) | change of serum IL-19 in words (PsA patients; both ixekizumab treatment groups, sustained over the 12 week treatment): lowering of IL-19 to near normal levels after 4 weeks | patients achieved a 75% reduction in PASI score (PASI 75) (Ps0 patients [2]): 90%
